Source: US9546164B2 (GENENTECH, INC., priority 2013, dated 2017)
Where a name gives a salt, the structure may show the parent alone. Read-outs that look alike come from different tables or passages of the source.

Assays:
[1] = target: T1, NaV1.5 (Homo sapiens (Human), UniProt Q14524); experiment: Patch voltage clamp electrophysiological assay (EP), NaV1.5
Experimental: (§1) The following patch voltage clamp electrophysiology studies were performed on representative compounds of the invention using human embryonic kidney cells (HEK), permanently transfected with an expression vector containing the full-length cDNA coding for the desired human sodium channel α-subunit, grown in culture media containing 10% FBS, 1% PSG, and 0.5 mg/mL G418 at 37° C. with 5% CO2. […] The β1 subunit was coexpressed in both the NaV1.7 and NaV1.5 cell lines.
(§2) Sodium currents were measured rising the patch clamp technique in the whole-cell configuration using either a PatchXpress automated voltage clamp or manually using an Axopatch 200B (Axon Instruments) or Model 2400 (A-M systems) amplifier. […] The pipette was filled with a solution comprised of: 5 mM NaCl, 10 mM CsCl, 120 mM CsF, 0.1 mM CaCl2, 2 mM MgCl2, 10 mM HEPES, 10 mM EGTA; and adjusted to pH 7.2 with CsOH. The external solution had the following composition: 140 mM NaCl, 5 mM KCl, 2 mM CaCl2, 1 mM MgCl2, 10 mM HEPES; and adjusted to pH 7.4 with NaOH. In some studies, the external sodium was reduced by equimolar replacement with choline. Osmolality in the CsF internal and NaCl external solutions was adjusted to 300 mOsm/kg and 310 mOsm/kg with glucose, respectively. All recordings were performed at ambient temperature in a bath chamber with a volume of 150 μL. Control sodium currents were measured in 0.5% DMSO. Controls and representative compounds of the invention were applied to the recording chamber through a 4-pinch or 8-pinch valve bath perfusion system manufactured by ALA Scientific Instruments.
(§3) Currents were recorded at 40 kHz sampling frequency, filtered at 5 Hz, and stored using a Digidata-1322A analogue/digital interface with the pClamp software (Axon instruments). Series resistance compensation was applied (60-80%). […] All statistics in this study are given as mean±SD.
(§4) The membrane potential was maintained at a voltage where reactivation of the channel is complete (which was −60 mV for both NaV1.7 and NaV1.5). The voltage is then stepped back to a very negative (Vhold=150 mV) voltage for 20 ms and then a test poise is applied to quantify the compound block. The 20 ms brief repolarization was long enough for compound-free channels to completely recover from fast inactivation, but the compound-bound channels recovered more slowly such that negligible recovery could occur during this interval. The percent decrease in sodium current following wash-on of compound was taken as the percent block of sodium channels.

[2] = target: hNav1.7 (Homo sapiens (Human), UniProt Q15858); experiment: Tritiated sulfonamide competitive binding to membranes from cells expressing hNav1.7 and the β1 subunit;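 also: Filter-bound radioactivity counted by liquid scintillation, nonspecific binding defined with excess unlabelled ligand, IC50 fitted to percent inhibition of specific binding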
[3] = target: NaV1.7 (Homo sapiens (Human), UniProt Q15858); experiment: Patch voltage clamp electrophysiological assay (EP), NaV1.7; type: cell-based; settings: HEK-293 cells stably expressing human NaV1.7 with β1 subunit, whole-cell patch clamp, holding −60 mV
Experimental: Electrophysiological Assay (EP) (In vitro Assay)
Control sodium currents were measured in 0.5% DMSO.
Series resistance compensation was applied (60-80%).

[4] = target: T1, NaV1.5
Experimental: as §1, §2, §3, §4

[5] = read-out: NaV1.5 EP, HEK-293 cells stably expressing human NaV1.5 with β1 subunit, whole-cell patch clamp, holding −60 mV
[6] = read-out: Ligand Binding Assay, 100 pM [3H]compound, membranes with hNav1.7 and β1 subunit, 18 h, room temperature

T1 sequence (Q14524 whole entry): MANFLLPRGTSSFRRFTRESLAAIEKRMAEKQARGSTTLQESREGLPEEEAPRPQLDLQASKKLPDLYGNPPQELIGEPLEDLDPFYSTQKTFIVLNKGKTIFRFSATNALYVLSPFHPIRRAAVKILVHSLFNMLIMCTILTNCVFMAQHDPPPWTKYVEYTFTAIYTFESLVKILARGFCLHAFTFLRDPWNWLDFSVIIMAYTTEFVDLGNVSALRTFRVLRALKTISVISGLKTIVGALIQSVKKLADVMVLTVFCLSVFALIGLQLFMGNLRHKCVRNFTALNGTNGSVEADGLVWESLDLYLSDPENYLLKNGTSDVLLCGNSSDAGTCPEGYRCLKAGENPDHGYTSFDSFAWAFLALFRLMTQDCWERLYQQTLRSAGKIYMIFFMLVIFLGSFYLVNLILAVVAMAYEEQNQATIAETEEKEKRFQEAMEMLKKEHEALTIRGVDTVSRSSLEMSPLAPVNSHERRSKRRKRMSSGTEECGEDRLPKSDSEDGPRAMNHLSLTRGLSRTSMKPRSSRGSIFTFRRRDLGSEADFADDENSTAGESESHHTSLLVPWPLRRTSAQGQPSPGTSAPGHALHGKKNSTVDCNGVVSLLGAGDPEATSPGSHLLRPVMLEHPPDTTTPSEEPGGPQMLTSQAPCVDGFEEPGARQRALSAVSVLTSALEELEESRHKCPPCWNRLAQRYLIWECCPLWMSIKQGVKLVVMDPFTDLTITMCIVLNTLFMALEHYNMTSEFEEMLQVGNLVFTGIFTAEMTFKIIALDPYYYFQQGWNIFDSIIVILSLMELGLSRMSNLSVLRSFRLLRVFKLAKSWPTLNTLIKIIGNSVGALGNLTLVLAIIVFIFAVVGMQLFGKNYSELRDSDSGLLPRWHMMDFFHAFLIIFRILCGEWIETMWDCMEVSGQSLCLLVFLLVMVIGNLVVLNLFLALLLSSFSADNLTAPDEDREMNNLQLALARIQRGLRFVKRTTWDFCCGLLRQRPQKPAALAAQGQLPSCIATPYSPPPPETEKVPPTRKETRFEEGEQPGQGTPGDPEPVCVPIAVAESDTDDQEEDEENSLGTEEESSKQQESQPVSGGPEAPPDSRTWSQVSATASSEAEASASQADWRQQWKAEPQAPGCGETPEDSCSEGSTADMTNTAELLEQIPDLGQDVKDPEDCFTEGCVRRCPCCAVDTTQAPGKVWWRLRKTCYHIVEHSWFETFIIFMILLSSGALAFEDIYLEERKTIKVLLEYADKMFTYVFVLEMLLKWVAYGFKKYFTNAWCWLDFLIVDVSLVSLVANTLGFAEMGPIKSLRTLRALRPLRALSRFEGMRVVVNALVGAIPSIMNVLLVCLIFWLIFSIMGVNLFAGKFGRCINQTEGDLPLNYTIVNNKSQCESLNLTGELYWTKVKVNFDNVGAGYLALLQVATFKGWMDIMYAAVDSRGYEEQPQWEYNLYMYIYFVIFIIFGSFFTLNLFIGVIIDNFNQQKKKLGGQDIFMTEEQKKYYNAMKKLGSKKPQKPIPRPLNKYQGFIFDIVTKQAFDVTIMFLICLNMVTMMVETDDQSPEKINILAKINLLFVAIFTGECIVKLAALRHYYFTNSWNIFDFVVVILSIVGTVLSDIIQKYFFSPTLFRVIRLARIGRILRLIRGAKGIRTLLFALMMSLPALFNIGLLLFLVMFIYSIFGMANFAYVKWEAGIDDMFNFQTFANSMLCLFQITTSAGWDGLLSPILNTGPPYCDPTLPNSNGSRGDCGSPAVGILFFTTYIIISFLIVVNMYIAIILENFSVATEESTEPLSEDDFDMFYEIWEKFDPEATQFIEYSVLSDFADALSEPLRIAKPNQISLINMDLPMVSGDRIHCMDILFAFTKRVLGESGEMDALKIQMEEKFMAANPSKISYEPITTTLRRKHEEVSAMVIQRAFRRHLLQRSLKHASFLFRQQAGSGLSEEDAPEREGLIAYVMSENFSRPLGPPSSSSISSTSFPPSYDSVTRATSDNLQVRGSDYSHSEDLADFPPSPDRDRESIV
NaV1.7, sequence (Q15858 other isoform, or with tags, fused parts or gaps): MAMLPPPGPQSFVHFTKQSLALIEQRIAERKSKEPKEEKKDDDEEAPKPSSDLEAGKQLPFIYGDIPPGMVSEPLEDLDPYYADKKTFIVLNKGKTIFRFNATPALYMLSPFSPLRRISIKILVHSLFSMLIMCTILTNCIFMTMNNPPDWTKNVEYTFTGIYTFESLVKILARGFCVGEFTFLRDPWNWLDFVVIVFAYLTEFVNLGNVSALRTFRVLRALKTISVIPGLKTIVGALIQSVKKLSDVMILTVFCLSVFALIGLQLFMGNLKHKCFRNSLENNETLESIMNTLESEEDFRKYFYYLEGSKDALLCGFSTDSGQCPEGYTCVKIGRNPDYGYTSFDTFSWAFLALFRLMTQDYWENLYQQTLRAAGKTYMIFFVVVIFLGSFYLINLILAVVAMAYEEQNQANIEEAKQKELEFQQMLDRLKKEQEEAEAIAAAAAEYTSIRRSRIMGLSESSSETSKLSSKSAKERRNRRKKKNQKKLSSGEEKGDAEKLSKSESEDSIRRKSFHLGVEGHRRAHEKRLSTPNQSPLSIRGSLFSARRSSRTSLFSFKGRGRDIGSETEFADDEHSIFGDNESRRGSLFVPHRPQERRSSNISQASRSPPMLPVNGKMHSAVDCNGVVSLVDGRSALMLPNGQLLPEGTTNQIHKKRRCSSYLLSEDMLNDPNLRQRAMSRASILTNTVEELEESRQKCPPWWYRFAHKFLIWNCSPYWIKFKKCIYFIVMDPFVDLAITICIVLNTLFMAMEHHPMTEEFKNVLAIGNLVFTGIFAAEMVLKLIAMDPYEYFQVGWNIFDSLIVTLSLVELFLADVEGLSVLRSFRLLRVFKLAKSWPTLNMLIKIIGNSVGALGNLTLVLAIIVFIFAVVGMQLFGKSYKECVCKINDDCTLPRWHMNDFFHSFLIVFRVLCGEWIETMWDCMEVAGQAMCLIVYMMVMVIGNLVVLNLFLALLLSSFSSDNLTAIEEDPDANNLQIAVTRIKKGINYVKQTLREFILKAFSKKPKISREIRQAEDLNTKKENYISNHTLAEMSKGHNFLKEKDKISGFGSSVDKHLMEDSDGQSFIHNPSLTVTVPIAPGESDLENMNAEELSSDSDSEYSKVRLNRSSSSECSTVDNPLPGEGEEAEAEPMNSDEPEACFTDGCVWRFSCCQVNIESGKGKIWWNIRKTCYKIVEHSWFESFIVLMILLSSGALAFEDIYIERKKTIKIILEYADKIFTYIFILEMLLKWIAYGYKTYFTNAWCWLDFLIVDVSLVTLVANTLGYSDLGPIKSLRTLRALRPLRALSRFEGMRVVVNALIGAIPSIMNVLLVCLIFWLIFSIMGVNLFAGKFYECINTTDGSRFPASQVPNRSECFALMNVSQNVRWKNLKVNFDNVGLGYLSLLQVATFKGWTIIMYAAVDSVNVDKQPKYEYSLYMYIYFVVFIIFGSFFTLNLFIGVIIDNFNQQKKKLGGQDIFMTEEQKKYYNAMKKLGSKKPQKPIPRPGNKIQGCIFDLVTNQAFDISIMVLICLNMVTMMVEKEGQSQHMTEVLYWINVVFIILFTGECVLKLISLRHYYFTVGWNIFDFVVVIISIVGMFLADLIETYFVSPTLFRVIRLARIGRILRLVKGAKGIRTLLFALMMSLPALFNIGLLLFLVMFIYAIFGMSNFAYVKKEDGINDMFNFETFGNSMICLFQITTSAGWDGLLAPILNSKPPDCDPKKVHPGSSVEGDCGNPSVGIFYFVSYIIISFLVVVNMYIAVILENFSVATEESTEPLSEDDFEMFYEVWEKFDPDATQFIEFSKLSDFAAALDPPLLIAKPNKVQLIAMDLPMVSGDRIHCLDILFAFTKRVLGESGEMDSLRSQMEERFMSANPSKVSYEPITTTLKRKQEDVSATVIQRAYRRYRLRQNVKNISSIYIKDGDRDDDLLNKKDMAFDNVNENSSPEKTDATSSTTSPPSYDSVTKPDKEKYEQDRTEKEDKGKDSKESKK
NaV1.7, sequence (Q07699 19-218 partner): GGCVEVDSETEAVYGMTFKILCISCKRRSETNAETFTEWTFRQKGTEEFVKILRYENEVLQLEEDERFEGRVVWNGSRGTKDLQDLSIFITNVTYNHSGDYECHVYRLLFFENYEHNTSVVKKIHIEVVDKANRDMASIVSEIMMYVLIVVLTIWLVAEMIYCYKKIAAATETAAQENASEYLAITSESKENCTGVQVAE
hNav1.7, sequence (Q15858 other isoform, or with tags, fused parts or gaps): as the sequence (Q15858 other isoform, or with tags, fused parts or gaps) above
hNav1.7, sequence (Q07699 19-218 partner): as the sequence (Q07699 19-218 partner) above

Row | SMILES | IC50 [2, 6] [nM] | IC50 [3] [nM] | IC50 [2] [nM] | IC50 [1, 5] [nM] | IC50 [1] [nM] | IC50 [4] [nM]
1 | CS(=O)(=O)NC(=O)c1cc(C2CC2)c(OCC2(F)CCN(Cc3cc(C(F)(F)F)cc(Cl)c3F)CC2)cc1F [Example 346, 4-((1-(3-chloro-2-fluoro-5-(trifluoromethyl)benzyl)-4-fluoropiperidin-4-yl)methoxy)-5-cyclopropyl-2-fluoro-N-(methylsulfonyl)benzamide trifluoroacetic acid salt] | 4.4 | 2.2 | – | 682000 | – | –
2 | O=C(NS(=O)(=O)N1CCC1)c1cc(C2CC2)c(O[C@@H]2CCCN(Cc3ccc(F)cc3Cl)C2)cc1F [Example 6, (R)—N-(azetidin-1-ylsulfonyl)-4-((1-(2-chloro-4-fluorobenzyl)piperidin-3-yl)oxy)-5-cyclopropyl-2-fluoroenzamide] | – | 0.9 | 3 | – | 33.1 | –
3 | C[C@@H](c1cc(Cl)cc(Cl)c1)N1CCC(COc2cc(F)c(C(=O)NS(C)(=O)=O)cc2C2CC2)CC1 [Example 100, (S)-5-Cyclopropyl-4-((1-(1-(3,5-dichlorophenyl)ethyl)piperidin-4-yl)methoxy)-2-fluoro-N-(methylsulfonyl)benzamide] | 4.19 | 5.8 | – | 552 | – | –
4 | CS(=O)(=O)NC(=O)c1cc(C2CC2)c(OCC2CCN(Cc3cc(Cl)cc(Cl)c3C#N)CC2)cc1F [Example 594, 5-Cyclopropyl-4-((1-(3,5-dichloro-2-cyanobenzyl)piperidin-4-yl)methoxy)-2-fluoro-N-(methylsulfonyl)benzamide] | 137 | 8.4 | – | 623 | – | –
5 | COC[C@H](c1cc(Cl)cc(Cl)c1)N1CCC(COc2cc(F)c(C(=O)NS(=O)(=O)C3CC3)cc2C2CC2)CC1 (single isomer, unassigned) [Example 165] | 2.3 | 2.4 | – | 49 | – | –
6 | CC(C)(c1cc(Cl)cc(Cl)c1)N1CCC[C@@H](Oc2cc(F)c(C(=O)NS(=O)(=O)C3CC3)cc2C2CC2)C1 [Example 495, (R)-5-cyclopropyl-N-(cyclopropylsulfonyl)-4-((1-(2-(3,5-dichlorophenyl)propan-2-yl)oxy)-2-fluorobenzamide, trifluoroacetic acid salt] | 4.4 | 0.2 | – | 15.4 | – | –
7 | O=C(NS(=O)(=O)N1CCC1)c1cc(C2CC2)c(OCC2CC3CCC(C2)N3C(c2ccccc2)c2ccccc2)cc1F (stereo not shown) [Example 49, N-(azetidin-1-ylsulfonyl)-4-((8-benzhydryl-8-azabicyclo[3.2.1]-octan-3-yl)methoxy)-5-cyclopropyl-2-fluorobenzamide] | – | – | – | – | – | 199
8 | O=C(NS(=O)(=O)N1CCC1)c1cc(C2CC2)c(O[C@@H]2CCCN(Cc3ccccc3)C2)cc1F [Example 1, (R)—N-(azetidin-1-ylsulfonyl)-4-((1-benzylpiperidin-3-yl)oxy)-5-cyclopropyl-2-fluorobenzamide] | 35.6 | 22.6 | – | 2760 | – | –
9 | CCS(=O)(=O)NC(=O)c1cc(C2CC2)c(OCC2CCN([C@@H](COC)c3cc(Cl)cc(Cl)c3)CC2)cc1F (single isomer, unassigned) [Example 168] | 6.2 | 3 | – | 78 | – | –

Further lines, with some results ahead:

Row | IC50 [2, 6] [nM] | IC50 [3] [nM] | IC50 [2] [nM] | SMILES | IC50 [1, 5] [nM] | IC50 [1] [nM] | IC50 [4] [nM]
10 | 1.6 | 3 | – | CCS(=O)(=O)NC(=O)c1cc(C2CC2)c(OCC2CCN([C@@H](c3cc(Cl)cc(Cl)c3)C(C)(C)OC)CC2)cc1F (single isomer, unassigned) [Example 208] | 13 | – | –
11 | 2.7 | 3 | – | C[C@H](c1ccc(Cl)c(C2CC2)n1)N1CCC[C@@H](Oc2cc(F)c(C(=O)NS(C)(=O)=O)cc2C2CC2)C1 (single isomer, unassigned) [Example 309] | 380 | – | –
12 | 2.2 | < 1 | – | CS(=O)(=O)NC(=O)c1cc(C2CC2)c(O[C@@H]2CCCN(Cc3ccc(F)cc3Cl)C2)cc1F [Example 312, (R)-4-((1-(2-chloro-4-fluorobenzyl)piperidin-3-yl)oxy)-5-cyclopropyl-2-fluoro-N-(methylsulfonyl)benzamide] | 310 | – | –
13 | 5.1 | 31 | – | CS(=O)(=O)NC(=O)c1cc(C2CC2)c(OCC2CCN(Cc3cc(F)cc(C(F)(F)F)c3)CC2)cc1F [Example 228, 5-Cyclopropyl-2-fluoro-4-((1-(3-fluoro-5-(trifluoromethyl)benzyl)piperidin-4-yl)methoxy)-N-(methylsulfonyl)benzamide] | 4100 | – | –
14 | 3.8 | < 3 | – | CS(=O)(=O)NC(=O)c1cc(C2CC2)c(CN2CCO[C@H](Cc3cc(Cl)cc(Cl)c3)C2)cc1F [Example 463, (R)-5-cyclopropyl-4-((2-(3,5-dichlorobenzyl)morpholino)methyl)-2-fluoro-N-(methylsulfonyl)benzamide] | 669 | – | –
15 | 2.7 | < 3 | – | O=C(NS(=O)(=O)C1CC1)c1cc(C2CC2)c(CN2CCO[C@H](Cc3cc(Cl)cc(Cl)c3)C2)cc1F [Example 464, (R)-5-cyclopropyl-N-(cyclopropylsulfonyl)-4-((2-(3,5-dichlorobenzyl)morpholino)methyl)-2-fluorobenzamide] | 109 | – | –
16 | 5.6 | < 3 | – | O=C(NS(=O)(=O)C1CC1)c1cc(C2CC2)c(CN2CCC(Oc3ncc(C4CC4)cc3Cl)CC2)cc1F [Example 474, 4-((4-((3-chloro-5-cyclopropylpyridin-2-yl)oxy)piperidin-1-yl)methyl)-5-cyclopropyl-N-(cyclopropylsulfonyl)-2-fluorobenzamide hydrochloride] | 449 | – | –
